Earlier results in patent publication US20110236508A1, “L-ARGININE-BASED FORMULATION FOR ORAL ABSORPTION” (priority 2008, published 2011).

Tests used:
mice deficient in Apo-E = settings: 6% L-arginine drinking solution
[1] = 24 hypercholesterolemic patients, 14 g/day for 12 weeks
coronary artery disease = settings: 9 g/day orally for 6 months
[2] = test system: coronary endothelial dysfunction; settings: oral 3 g TID, after 6 months
anginal patients = settings: 6 g/day
[3] = test system: peripheral arterial disease; settings: 8 g, bid, 14 days

In the case of `N=C(N)NCCC[C@H](N)C(=O)O` [L-arginine], the “increase in treadmill exercise performance” value (mice deficient in Apo-E) is listed as 61%, the adverse effects [1] is listed as “no reports of any adverse effects” and the “decrease in anginal episodes” value (coronary artery disease) is listed as 70%. The “improvement of acetylcholine-induced coronary vascular relaxation” value (coronary artery disease) was 149%, the “flow-mediated dilation (FMD) of the brachial artery” value (brachial artery; 8 g p.o. two times daily for 14 days, 12 healthy old subjects, p<0.0001) was 5.7+/−1.2% and the “plasma levels of L-arginine” value (brachial artery; after 8 g p.o. two times daily for 14 days, versus 57.4+/−5.0) was 114.9 ± 11.6 µM. The ADMA plasma concentrations (brachial artery; during treatment, 8 g p.o. two times daily for 14 days) was “remained unchanged”, the “patients' symptoms scores” value ([2]; compared with placebo) was “improvement” and the plasma endothelin concentrations ([2]; compared with placebo) was “decrease”. For the same compound, the “coronary blood flow in response to acetylcholine” value ([2]; P<0.05 versus placebo) was 149±20%, the exercise tolerance (anginal patients) was “improved” and the “time to 1 mm ST-segment depression during exercise-stress testing” value (anginal patients) was “increased”. For the same compound, the “improvement in walking distance” value [3] was 150%.
